Several values for one entry are separate records, joined by “and”; a condition that tells them apart may be missing. Identical values can stand only once.
Legend:
[1] = test system: LPS-induced TNF-α production in RAW 264.7 cells; conditions: for TNF-α level: cells treated with 25 μM compound, LPS-activated RAW 264.7
[2] = biological target: T1, soybean 15-LOX (Glycine max, UniProt P08170); assay: In vitro 15-LOX inhibitory assay; format: biochemical
T1 sequence (P08170 1-839): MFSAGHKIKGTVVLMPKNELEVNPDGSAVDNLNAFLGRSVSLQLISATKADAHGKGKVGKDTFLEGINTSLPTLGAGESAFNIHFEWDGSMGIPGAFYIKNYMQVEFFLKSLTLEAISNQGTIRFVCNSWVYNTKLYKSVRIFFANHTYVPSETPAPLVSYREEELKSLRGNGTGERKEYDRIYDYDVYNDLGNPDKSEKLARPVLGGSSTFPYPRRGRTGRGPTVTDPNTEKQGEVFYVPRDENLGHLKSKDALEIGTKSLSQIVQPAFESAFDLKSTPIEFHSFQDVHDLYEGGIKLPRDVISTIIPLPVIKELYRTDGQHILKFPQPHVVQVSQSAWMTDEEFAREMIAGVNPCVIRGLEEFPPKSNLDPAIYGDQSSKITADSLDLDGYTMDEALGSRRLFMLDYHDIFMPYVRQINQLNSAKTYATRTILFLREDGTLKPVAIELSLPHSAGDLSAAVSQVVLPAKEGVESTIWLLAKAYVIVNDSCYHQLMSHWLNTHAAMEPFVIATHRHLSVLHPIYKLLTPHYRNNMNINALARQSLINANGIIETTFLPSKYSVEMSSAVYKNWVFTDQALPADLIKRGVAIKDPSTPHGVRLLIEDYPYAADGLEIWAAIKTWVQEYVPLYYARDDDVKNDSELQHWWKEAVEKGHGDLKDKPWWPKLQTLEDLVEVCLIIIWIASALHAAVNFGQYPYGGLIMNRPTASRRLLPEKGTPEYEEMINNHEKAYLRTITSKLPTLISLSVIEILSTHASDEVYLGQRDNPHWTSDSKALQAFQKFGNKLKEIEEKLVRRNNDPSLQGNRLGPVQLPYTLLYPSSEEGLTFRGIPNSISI

[3] = test system: LPS-induced IL-6 production in RAW 264.7 cells; conditions: for IL-6 level: cells treated with 25 μM compound, LPS-activated RAW 264.7
[4] = biological target: T2, human recombinant COX-2 (Homo sapiens, UniProt P35354); assay: In vitro COX-2 inhibitory assay; format: biochemical; conditions: for Enhancement of anti-COX-2 activity by p-Cl on benzylidine: compared with unsubstituted compounds 4b, 4c, 4g, 4h respectively
T2 sequence (P35354 18-604): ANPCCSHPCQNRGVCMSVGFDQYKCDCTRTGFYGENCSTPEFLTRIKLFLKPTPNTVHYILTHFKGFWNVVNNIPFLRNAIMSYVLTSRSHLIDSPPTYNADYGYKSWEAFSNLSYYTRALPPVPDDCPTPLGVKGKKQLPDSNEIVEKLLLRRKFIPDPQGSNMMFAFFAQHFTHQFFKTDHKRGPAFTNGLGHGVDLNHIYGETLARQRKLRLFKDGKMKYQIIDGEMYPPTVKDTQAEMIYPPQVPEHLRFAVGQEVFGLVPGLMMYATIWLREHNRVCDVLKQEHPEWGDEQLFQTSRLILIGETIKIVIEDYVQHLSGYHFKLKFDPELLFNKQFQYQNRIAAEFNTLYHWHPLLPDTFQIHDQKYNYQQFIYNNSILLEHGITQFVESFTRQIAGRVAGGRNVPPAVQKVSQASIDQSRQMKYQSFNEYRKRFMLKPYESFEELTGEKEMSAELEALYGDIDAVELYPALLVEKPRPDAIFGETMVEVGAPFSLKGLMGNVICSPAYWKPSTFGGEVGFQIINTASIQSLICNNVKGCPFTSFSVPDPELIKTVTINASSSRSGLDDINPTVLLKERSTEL

[5] = test system: LPS-induced ROS production in RAW 264.7 cells; assay: cells; conditions: Mus musculus, RAW264.7, 18 h, read-out: ROS (IC50)
[6] = biological target: T3, ovine COX-1 (Ovis aries, UniProt P05979); assay: In vitro COX-1 inhibitory assay; format: biochemical
T3 sequence (P05979 25-600): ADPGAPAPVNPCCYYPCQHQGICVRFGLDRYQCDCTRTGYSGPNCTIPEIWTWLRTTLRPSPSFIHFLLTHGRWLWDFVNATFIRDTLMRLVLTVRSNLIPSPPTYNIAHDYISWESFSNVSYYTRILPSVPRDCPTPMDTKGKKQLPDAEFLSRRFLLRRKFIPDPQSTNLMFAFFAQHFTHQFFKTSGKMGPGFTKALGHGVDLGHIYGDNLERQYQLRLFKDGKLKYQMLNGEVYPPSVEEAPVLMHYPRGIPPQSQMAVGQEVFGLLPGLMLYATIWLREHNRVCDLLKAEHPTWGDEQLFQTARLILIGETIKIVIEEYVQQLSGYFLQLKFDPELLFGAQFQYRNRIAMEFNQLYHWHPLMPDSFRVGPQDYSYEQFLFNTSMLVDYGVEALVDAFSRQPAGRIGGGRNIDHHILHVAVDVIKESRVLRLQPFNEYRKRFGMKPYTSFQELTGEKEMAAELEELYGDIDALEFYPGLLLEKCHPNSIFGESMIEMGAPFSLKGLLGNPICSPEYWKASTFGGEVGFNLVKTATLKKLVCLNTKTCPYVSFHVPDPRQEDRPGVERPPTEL

Row | SMILES | TNF-α level [1] | IC50 [2] [µM] | IL-6 level [3] | IC50 [4] [µM] | SI (Selectivity index = COX-1 IC50/COX-2 IC50) [4] | IC50 [5] [µM] | IC50 [6] [µM] | Enhancement of anti-COX-2 activity by p-Cl on benzylidine [4] [folds] | TNF-α inhibitory activity, fold more than unsubstituted benzylidine 4h ([1]; vs 4h) [fold] | TNF-α inhibition, fold more potent than celecoxib ([1]; vs celecoxib) | IL-6 inhibitory activity, folds more than unsubstituted benzylidine 4h ([3]; vs 4h)
1 | Cc1ccc(NC(=O)CSC2=N/C(=C\c3ccc(Cl)cc3)C(=O)N2c2ccccc2)cc1 [Compound 4n, (Z)-2-{[4-(4-Chlorobenzylidene)-5-oxo-1-phenyl-4,5-dihydro-1H-imidazol-2-yl]thio}-N-(4-tolyl)acetamide] | 37.28 ± 14.95 pg/mL | 3.13 ± 1.49 | 36.56 ± 14.95 pg/mL | 0.12 ± 0.053 | 79.96 | 41 ± 1.39 | 9.45 ± 1.33 |  |  |  | 
2 | O=C(CSC1=N/C(=C\c2ccc(Cl)cc2)C(=O)N1c1ccccc1)Nc1ccc(Br)cc1 [Compound 4m, (Z)-N-(4-Bromophenyl)-2-[(4-(4-chlorobenzylidene)-5-oxo-1-phenyl-4,5-dihydro-1H-imidazol-2-yl)thio]acetamide] | 27.89 pg/mL and 27.89 ± 0.90 pg/mL | 4.21 ± 1.53 | 27.16 ± 0.9 pg/mL | 0.18 ± 0.082 | 44.12 | 38.4 ± 1.37 | 8 ± 1.31 |  |  |  | 
3 | O=C(CSC1=N/C(=C\c2ccccc2)C(=O)N1c1ccccc1)Nc1cccc(C(F)(F)F)c1 [Compound 4h, (Z)-2-[(4-Benzylidene-5-oxo-1-phenyl-4,5-dihydro-1H-imidazol-2-yl)thio]-N-[3-(trifluoromethyl)phenyl]acetamide] | 24.15 ± 1.05 pg/mL | 5.71 ± 2.56 | 23.42 pg/mL and 23.42 ± 1.05 pg/mL | 0.28 ± 0.155 | 39.99 | 45.4 ± 1.23 | 11.1 ± 1.63 |  |  |  | 
4 | COc1cc(NC(=O)CSC2=N/C(=C\c3ccc(Cl)cc3)C(=O)N2c2ccccc2)cc(OC)c1OC [Compound 4p, (Z)-2-{[4-(4-Chlorobenzylidene)-5-oxo-1-phenyl-4,5-dihydro-1H-imidazol-2-yl]thio}-N-(3,4,5-trimethoxyphenyl)acetamide] | 31.42 ± 3.70 pg/mL | 2.69 ± 1.29 | 30.70 pg/mL and 30.70 ± 3.70 pg/mL | 0.08 ± 0.037 | 152.23 and 152.33 | 25.4 ± 1.26 | 12.8 ± 1.83 | 1.75 |  |  | 
5 | O=C(CSC1=N/C(=C\c2ccc(Cl)cc2)C(=O)N1c1ccccc1)Nc1cccc(C(F)(F)F)c1 [Compound 4q, (Z)-2-{[4-(4-Chlorobenzylidene)-5-oxo-1-phenyl-4,5-dihydro-1H-imidazol-2-yl]thio}-N-[3-(trifluoromethyl)phenyl]acetamide] | 5.26 pg/mL and 5.26 ± 0.61 pg/mL | 3.99 ± 1.9 | 4.54 ± 0.61 pg/mL | 0.09 ± 0.04 | 111.90 | 56.2 ± 1.26 | 10.1 ± 1.61 | 3.1 | 4.6 | ~ 5 fold | ~ 5 folds
6 | O=C(CSC1=N/C(=C\c2ccccc2)C(=O)N1c1ccccc1)NCc1ccccc1 [Compound 4i, (Z)-N-Benzyl-2-[(4-benzylidene-5-oxo-1-phenyl-4,5-dihydro-1H-imidazol-2-yl)thio]acetamide] | 46.98 ± 25.83 pg/mL | 2.82 ± 1.27 | 21.00 pg/mL and 21.00 ± 9.39 pg/mL | 0.09 ± 0.041 | 121.60 | 21.8 ± 1.26 | 10.6 ± 1.62 |  |  |  | 

Reference: PMC11073913 (Archiv der Pharmazie, 2024)
